Columns and labels:
oat, wild [1] = experiment: Test C postemergence; type: in vivo, Avena fatua; conditions: 10 days, 0 to 100 scale (0 no effect, 100 complete control)
Summary of the method: (§1)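 Visual injury ratings on a 0–100 scale (100 = complete control) were made against untreated controls 10 days after treatment in the greenhouse. Compounds, formulated with surfactant in non-phytotoxic solvent, were sprayed on soil preemergence or onto one- to two-leaf plants 2–10 cm tall postemergence.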

ragweed [2] = experiment: Test C postemergence; type: in vivo, Ambrosia artemisiifolia; conditions: 10 days, 0 to 100 scale (0 no effect, 100 complete control)
Summary of the method: as §1

ryegrass, Italian [3] = experiment: Test C postemergence; type: in vivo, Lolium multiflorum; conditions: 10 days, 0 to 100 scale (0 no effect, 100 complete control)
Summary of the method: as §1

blackgrass [4] = experiment: Test C postemergence; type: in vivo, Alopecurus myosuroides; conditions: 10 days, 0 to 100 scale (0 no effect, 100 complete control)
Summary of the method: as §1

soybean [5] = experiment: Test C postemergence; type: in vivo, Glycine max; conditions: 10 days, 0 to 100 scale (0 no effect, 100 complete control)
Summary of the method: as §1

blackgrass [6] = experiment: Test C preemergence; type: in vivo, Alopecurus myosuroides; conditions: preemergence, 0 to 100 scale (0 no effect, 100 complete control)
Summary of the method: as §1

corn [7] = experiment: Test C postemergence; type: in vivo, Zea mays; conditions: 10 days, 0 to 100 scale (0 no effect, 100 complete control)
Summary of the method: as §1

oat, wild [8] = experiment: Test C preemergence; type: in vivo, Avena fatua; conditions: preemergence, 0 to 100 scale (0 no effect, 100 complete control)
Summary of the method: as §1

galium = experiment: Test C postemergence; type: in vivo, Galium aparine; conditions: 10 days, 0 to 100 scale (0 no effect, 100 complete control)
Summary of the method: as §1

kochia [9] = experiment: Test C preemergence; type: in vivo, Bassia scoparia; conditions: preemergence, 0 to 100 scale (0 no effect, 100 complete control)
Summary of the method: as §1

pigweed, palmer [10] = experiment: Test C postemergence; type: in vivo, Amaranthus palmeri; conditions: 10 days, 0 to 100 scale (0 no effect, 100 complete control)
Summary of the method: as §1

ducksalad = experiment: Test D flooded paddy test; type: in vivo, Heteranthera limosa; conditions: 250 g ai/ha, applied to paddy water, visual rating after 13 to 14 days, scale 0 to 100 (0 no effect, 100 complete control)
Summary of the method: (§2)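 Plants grown to the 2-leaf stage; pots flooded to 3 cm above soil at treatment and held at that depth throughout. Test compounds applied directly to the paddy water. After 13 to 14 days in a greenhouse, response was rated visually versus controls on a 0 (no effect) to 100 (complete control) scale.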

sedge, umbrella = experiment: Test D flooded paddy test; type: in vivo, Cyperus difformis; conditions: 250 g ai/ha, applied to paddy water, visual rating after 13 to 14 days, scale 0 to 100 (0 no effect, 100 complete control)
Summary of the method: as §2

corn [11] = experiment: Test C preemergence; type: in vivo, Zea mays; conditions: preemergence, 0 to 100 scale (0 no effect, 100 complete control)
Summary of the method: as §1

barnyardgrass [12] = experiment: Test D flooded paddy test; type: in vivo, Echinochloa crus-galli; conditions: 250 g ai/ha, applied to paddy water, visual rating after 13 to 14 days, scale 0 to 100 (0 no effect, 100 complete control)
Summary of the method: as §2

wheat [13] = experiment: Test C postemergence; type: in vivo, Triticum aestivum; conditions: 10 days, 0 to 100 scale (0 no effect, 100 complete control)
Summary of the method: as §1

rice = experiment: Test D flooded paddy test; type: in vivo, Oryza sativa; conditions: 250 g ai/ha, applied to paddy water, visual rating after 13 to 14 days, scale 0 to 100 (0 no effect, 100 complete control)
Summary of the method: as §2

green foxtail [14] = experiment: Test C postemergence; type: in vivo, Setaria viridis; conditions: 10 days, 0 to 100 scale (0 no effect, 100 complete control)
Summary of the method: as §1

ragweed [15] = experiment: Test C preemergence; type: in vivo, Ambrosia artemisiifolia; conditions: preemergence, 0 to 100 scale (0 no effect, 100 complete control)
Summary of the method: as §1

pigweed, palmer [16] = experiment: Test C preemergence; type: in vivo, Amaranthus palmeri; conditions: preemergence, 0 to 100 scale (0 no effect, 100 complete control)
Summary of the method: as §1

kochia [17] = experiment: Test C postemergence; type: in vivo, Bassia scoparia; conditions: 10 days, 0 to 100 scale (0 no effect, 100 complete control)
Summary of the method: as §1

green foxtail [18] = experiment: Test C preemergence; type: in vivo, Setaria viridis; conditions: preemergence, 0 to 100 scale (0 no effect, 100 complete control)
Summary of the method: as §1

barnyardgrass [19] = experiment: Test C postemergence; type: in vivo, Echinochloa crusgalli; conditions: 10 days, 0 to 100 scale (0 no effect, 100 complete control)
Summary of the method: as §1

ryegrass, Italian [20] = experiment: Test C preemergence; type: in vivo, Lolium multiflorum; conditions: preemergence, 0 to 100 scale (0 no effect, 100 complete control)
Summary of the method: as §1

barnyardgrass [21] = experiment: Test C preemergence; type: in vivo, Echinochloa crusgalli; conditions: preemergence, 0 to 100 scale (0 no effect, 100 complete control)
Summary of the method: as §1

horseweed = experiment: Test C postemergence; type: in vivo, Erigeron canadensis; conditions: 10 days, 0 to 100 scale (0 no effect, 100 complete control)
Summary of the method: as §1

soybean [22] = experiment: Test C preemergence; type: in vivo, Glycine max; conditions: preemergence, 0 to 100 scale (0 no effect, 100 complete control)
Summary of the method: as §1

wheat [23] = experiment: Test C preemergence; type: in vivo, Triticum aestivum; conditions: preemergence, 0 to 100 scale (0 no effect, 100 complete control)
Summary of the method: as §1

CC(C)Oc1ncn(-c2cccc(C(=O)N3C[C@H](C)Oc4c(Cl)cccc43)c2)n1 [Compound 312]
50: Blackgrass plant response rating (blackgrass [6]; Test C, 125 g ai/ha) | Plant response rating, Pigweed, Palmer (pigweed, palmer [10]; 500 g ai/ha, postemergence)
0: Plant response rating, Oat, Wild (oat, wild [1]; 500 g ai/ha, postemergence) | Plant response rating, Oat, Wild (oat, wild [1]; Postemergence, 125 g ai/ha) | Plant response rating, Ragweed (ragweed [2]; Postemergence, 125 g ai/ha) | Plant response rating, Blackgrass (blackgrass [4]; Postemergence, 125 g ai/ha) | Oat, Wild plant response rating (oat, wild [8]; Test C, 125 g ai/ha) | Kochia plant response rating (kochia [9]; Test C, 125 g ai/ha) | Plant response rating, Ducksalad (Flood) (ducksalad) | Plant response rating, Sedge, Umbrella (Flood) (sedge, umbrella) | Corn plant response rating (corn [11]; Test C, 125 g ai/ha) | Plant response rating, Barnyardgrass (Flood) (barnyardgrass [12]) | Plant response rating, Rice (Flood) (rice) | Plant response rating, Foxtail, Green (green foxtail [14]; Postemergence, 125 g ai/ha) | Ragweed plant response rating (ragweed [15]; 500 g ai/ha) | Ragweed plant response rating (ragweed [15]; Test C, 125 g ai/ha) | Barnyardgrass plant response rating (barnyardgrass [21]; Test C, 125 g ai/ha) | Plant response rating, Horseweed (horseweed; 500 g ai/ha, postemergence) | Plant response rating, Horseweed (horseweed; Postemergence, 125 g ai/ha) | Soybean plant response rating (soybean [22]; Test C, 125 g ai/ha) | Wheat plant response rating (wheat [23]; Test C, 125 g ai/ha)
70: Oat, Wild plant response rating (oat, wild [8]; 500 g ai/ha) | Pigweed, Palmer plant response rating (pigweed, palmer [16]; 500 g ai/ha) | Ryegrass, Italian plant response rating (ryegrass, Italian [20]; Test C, 125 g ai/ha)
10: Plant response rating, Corn (corn [7]; 500 g ai/ha, postemergence) | Plant response rating, Corn (corn [7]; Postemergence, 125 g ai/ha) | Plant response rating, Pigweed, Palmer (pigweed, palmer [10]; Postemergence, 125 g ai/ha) | Corn plant response rating (corn [11]; 500 g ai/ha) | Plant response rating, Wheat (wheat [13]; 500 g ai/ha, postemergence) | Plant response rating, Wheat (wheat [13]; Postemergence, 125 g ai/ha) | Plant response rating, Barnyardgrass (barnyardgrass [19]; 500 g ai/ha, postemergence) | Plant response rating, Barnyardgrass (barnyardgrass [19]; Postemergence, 125 g ai/ha) | Soybean plant response rating (soybean [22]; 500 g ai/ha) | Wheat plant response rating (wheat [23]; 500 g ai/ha)
40: Plant response rating, Ragweed (ragweed [2]; 500 g ai/ha, postemergence) | Plant response rating, Blackgrass (blackgrass [4]; 500 g ai/ha, postemergence) | Barnyardgrass plant response rating (barnyardgrass [21]; 500 g ai/ha)
100: Plant response rating, Soybean (soybean [5]; 500 g ai/ha, postemergence)
30: Plant response rating, Ryegrass, Italian (ryegrass, Italian [3]; 500 g ai/ha, postemergence) | Plant response rating, Ryegrass, Italian (ryegrass, Italian [3]; Postemergence, 125 g ai/ha)
80: Plant response rating, Soybean (soybean [5]; Postemergence, 125 g ai/ha) | Blackgrass plant response rating (blackgrass [6]; 500 g ai/ha) | Plant response rating, Galium (galium; 500 g ai/ha, postemergence) | Plant response rating, Kochia (kochia [17]; 500 g ai/ha, postemergence) | Foxtail, Green plant response rating (green foxtail [18]; Test C, 125 g ai/ha) | Ryegrass, Italian plant response rating (ryegrass, Italian [20]; 500 g ai/ha)
60: Plant response rating, Galium (galium; Postemergence, 125 g ai/ha)
20: Kochia plant response rating (kochia [9]; 500 g ai/ha) | Plant response rating, Foxtail, Green (green foxtail [14]; 500 g ai/ha, postemergence) | Pigweed, Palmer plant response rating (pigweed, palmer [16]; Test C, 125 g ai/ha) | Plant response rating, Kochia (kochia [17]; Postemergence, 125 g ai/ha)
90: Foxtail, Green plant response rating (green foxtail [18]; 500 g ai/ha)

Source: patent US20260262643A1, “HERBICIDAL BENZOXAZINES” (FMC CORPORATION, priority 2022, published 2026)
